Reference: US10106544B2, “1,2-dihydro-3H-pyrrolo[1,2-C]imidazol-3-one derivatives and their use as antibacterial agents” (priority 2014, dated 2018)
Values after ≈ are worked out from the molar mass of the structure shown. Like-named read-outs stand apart in the source and are kept apart here.

Legend:
Experiment in all cases: Bacterial growth minimal inhibitory concentration (microdilution, cation-adjusted Mueller-Hinton Broth)
Assay type in all cases: cell-based
K. pneumoniae A-651 = conditions: for MIC: Klebsiella pneumoniae
How it was run: (§1)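 Broth microdilution in cation-adjusted Mueller-Hinton Broth per CLSI M7-A7, MIC in mg/L. K. pneumoniae A-651 is multiply resistant, including to quinolones. E. coli ATCC25922 and P. aeruginosa ATCC27853 are quinolone-sensitive.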

P. aeruginosa ATCC27853 = conditions: for MIC: Pseudomonas aeruginosa
How it was run: as §1

E. coli ATCC25922 = conditions: for MIC: Escherichia coli
How it was run: as §1

[1] = A651, multiply-resistant strain (in particular quinolone-resistant), read-out: MIC for K. Pneumoniae A-651
[2] = ATCC27853, quinolone-sensitive strain, read-out: MIC for P. aeruginosa ATCC27853
[3] = ATCC25922, quinolone-sensitive strain, read-out: MIC for E. coli ATCC25922

SMILES | MIC (K. pneumoniae A-651; [1]) [µg/mL] | MIC (P. aeruginosa ATCC27853; [2]) [µg/mL] | MIC (E. coli ATCC25922; [3]) [µg/mL] | other results
C[C@@](CCN1Cc2cc(C#Cc3ccc(C(=O)CO)cc3)cn2C1=O)(C(=O)NO)S(C)(=O)=O [Example 45, (R)-N-hydroxy-4-(6-((4-(2-hydroxyacetyl)phenyl)ethynyl)-3-oxo-1H-pyrrolo[1,2-c]imidazol-2(3H)-yl)-2-methyl-2-(methylsulfonyl)butanamide] | 1 (≈ 2.11 µM) | 4 (≈ 8.45 µM) | 0.25 (≈ 0.528 µM) | 
CN(C)CC#CC#Cc1cc2n(c1)C(=O)N(CC[C@](C)(C(=O)NO)S(C)(=O)=O)C2 [Example 46, (R)-4-(6-(5-(dimethylamino)penta-1,3-diyn-1-yl)-3-oxo-1H-pyrrolo[1,2-c]imidazol-2(3H)-yl)-N-hydroxy-2-methyl-2-(methylsulfonyl)butanamide] | 2 (≈ 4.76 µM) | 4 (≈ 9.51 µM) | 1 (≈ 2.38 µM) | 
COC(=O)c1ccc(-c2cc3n(c2)C(=O)N(CC[C@](C)(C(=O)NO)S(C)(=O)=O)C3)c(F)c1 [Example 47, methyl (R)-3-fluoro-4-(2-(4-(hydroxyamino)-3-methyl-3-(methylsulfonyl)-4-oxobutyl)-3-oxo-2,3-dihydro-1H-pyrrolo[1,2-c]imidazol-6-yl)benzoate] | 0.25 (≈ 0.535 µM) | 8 (≈ 17.1 µM) | ≤ 0.063 | 
C[C@@](CCN1Cc2cc(-c3ccc(Cl)cc3F)cn2C1=O)(C(=O)NO)S(C)(=O)=O [Example 48, (R)-4-(6-(4-chloro-2-fluorophenyl)-3-oxo-1H-pyrrolo[1,2-c]imidazol-2(3H)-yl)-N-hydroxy-2-methyl-2-(methylsulfonyl)butanamide] | 0.25 (≈ 0.563 µM) | 1 (≈ 2.25 µM) | ≤ 0.063 | 
CCOc1ccc(-c2cc3n(c2)C(=O)N(CC[C@](C)(C(=O)NO)S(C)(=O)=O)C3)c(Cl)c1 [Example 49, (R)-4-(6-(2-chloro-4-ethoxyphenyl)-3-oxo-1H-pyrrolo[1,2-c]imidazol-2(3H)-yl)-N-hydroxy-2-methyl-2-(methylsulfonyl)butanamide] | 0.125 (≈ 0.266 µM) | 4 (≈ 8.51 µM) | ≤ 0.063 | 
COc1ccc(-c2cc3n(c2)C(=O)N(CC[C@](C)(C(=O)NO)S(C)(=O)=O)C3)c(Cl)c1 [Example 52, (R)-4-(6-(2-chloro-4-methoxyphenyl)-3-oxo-1H-pyrrolo[1,2-c]imidazol-2(3H)-yl)-N-hydroxy-2-methyl-2-(methylsulfonyl)butanamide] | ≤ 0.063 | 2 (≈ 4.39 µM) | ≤ 0.063 | 
C[C@@](CCN1Cc2cc(-c3ccc(C(F)(F)F)cc3F)cn2C1=O)(C(=O)NO)S(C)(=O)=O [Example 53, (R)-4-(6-(2-fluoro-4-(trifluoromethyl)phenyl)-3-oxo-1H-pyrrolo[1,2-c]imidazol-2(3H)-yl)-N-hydroxy-2-methyl-2-(methylsulfonyl)butanamide] | 0.25 (≈ 0.524 µM) | 8 (≈ 16.8 µM) | 0.25 (≈ 0.524 µM) | 
C[C@@](CCN1Cc2cc(-c3ccc(F)c(F)c3F)cn2C1=O)(C(=O)NO)S(C)(=O)=O [Example 54, (R)-N-hydroxy-2-methyl-2-(methylsulfonyl)-4-(3-oxo-6-(2,3,4-trifluorophenyl)-1H-pyrrolo[1,2-c]imidazol-2(3H)-yl)butanamide] | 1 (≈ 2.25 µM) | 1 (≈ 2.25 µM) | 0.125 (≈ 0.281 µM) | 
COc1ccc(-c2cc3n(c2)C(=O)N(CC[C@](C)(C(=O)NO)S(C)(=O)=O)C3)c(F)c1F [Example 55, (R)-4-(6-(2,3-difluoro-4-methoxyphenyl)-3-oxo-1H-pyrrolo[1,2-c]imidazol-2(3H)-yl)-N-hydroxy-2-methyl-2-(methylsulfonyl)butanamide] | 1 (≈ 2.19 µM) | 4 (≈ 8.74 µM) | 0.125 (≈ 0.273 µM) | 
C[C@@](CCN1Cc2cc(C#CC#CC3(CO)CCC3)cn2C1=O)(C(=O)NO)S(C)(=O)=O [Example 56, (R)-N-hydroxy-4-(6-((1-(hydroxymethyl)cyclobutyl)buta-1,3-diyn-1-yl)-3-oxo-1H-pyrrolo[1,2-c]imidazol-2(3H)-yl)-2-methyl-2-(methylsulfonyl)butanamide] | 1 (≈ 2.23 µM) | 2 (≈ 4.47 µM) | 0.25 (≈ 0.559 µM) | 
C[C@@](CCN1Cc2cc(C#CC#CC3(CO)COC3)cn2C1=O)(C(=O)NO)S(C)(=O)=O [Example 57] |  |  |  | MIC for K. Pneumoniae A-651 (K. pneumoniae A-651; multiply-resistant strain (in particular quinolone-resistant)): 2 µg/mL; MIC for P. aeruginosa ATCC27853 (P. aeruginosa ATCC27853; quinolone-sensitive strain): 4 µg/mL; MIC for E. coli ATCC25922 (E. coli ATCC25922; quinolone-sensitive strain): 1 µg/mL
C[C@@](CCN1Cc2cc(C#CC#CCNS(C)(=O)=O)cn2C1=O)(C(=O)NO)S(C)(=O)=O [Example 58, (R)-N-hydroxy-2-methyl-4-(6-(5-(methylsulfonamido)penta-1,3-diyn-1-yl)-3-oxo-1H-pyrrolo[1,2-c]imidazol-2(3H)-yl)-2-(methylsulfonyl)butanamide] | 8 (≈ 17 µM) | 4 (≈ 8.5 µM) | 4 (≈ 8.5 µM) | 
CC(C)(C)OC(=O)N1CC(O)(c2ccc(C#Cc3cc4n(c3)C(=O)N(CC[C@](C)(C(=O)NO)S(C)(=O)=O)C4)cc2)C1 [Example 59, tert-butyl (R)-3-hydroxy-3-(4-((2-(4-(hydroxyamino)-3-methyl-3-(methylsulfonyl)-4-oxobutyl)-3-oxo-2,3-dihydro-1H-pyrrolo[1,2-c]imidazol-6-yl)ethynyl)phenyl)azetidine-1-carboxylate] | 1 (≈ 1.7 µM) | 8 (≈ 13.6 µM) | 1 (≈ 1.7 µM) | 
C[C@]1(CO)C[C@@H]1C#CC#Cc1cc2n(c1)C(=O)N(CC[C@](C)(C(=O)NO)S(C)(=O)=O)C2 [Example 61, (R)-N-hydroxy-4-(6-(((1R,2S)-2-(hydroxymethyl)-2-methylcyclopropyl)buta-1,3-diyn-1-yl)-3-oxo-1H-pyrrolo[1,2-c]imidazol-2(3H)-yl)-2-methyl-2-(methylsulfonyl)butanamide] | 0.25 (≈ 0.559 µM) | 0.25 (≈ 0.559 µM) | 0.25 (≈ 0.559 µM) | 
C[C@@](CCN1Cc2cc(C#Cc3ccc(C4(N)CC4)cc3)cn2C1=O)(C(=O)NO)S(C)(=O)=O [Example 72, (R)-4-(6-((4-(1-aminocyclopropyl)phenyl)ethynyl)-3-oxo-1H-pyrrolo[1,2-c]imidazol-2(3H)-yl)-N-hydroxy-2-methyl-2-(methylsulfonyl)butanamide] |  |  |  | MIC (K. pneumoniae A-651; A651, read-out: MIC for K. Pneumoniae A-651): 0.25 µg/mL (≈ 0.531 µM); MIC (P. aeruginosa ATCC27853; ATCC27853, read-out: MIC for P. aeruginosa ATCC27853): 0.5 µg/mL (≈ 1.06 µM); MIC (E. coli ATCC25922; ATCC25922, read-out: MIC for E. coli ATCC25922): 0.125 µg/mL (≈ 0.266 µM)

The next lines start with results.

MIC (K. pneumoniae A-651; [1]) [µg/mL] | MIC (P. aeruginosa ATCC27853; [2]) [µg/mL] | MIC (E. coli ATCC25922; [3]) [µg/mL] | SMILES | other results
4 (≈ 8.39 µM) | 1 (≈ 2.1 µM) | 1 (≈ 2.1 µM) | C[C@@](CCN1Cc2cc(C#CC#CC3CN(C(=O)CO)C3)cn2C1=O)(C(=O)NO)S(C)(=O)=O [Example 62, (R)-N-hydroxy-4-(6-((1-(2-hydroxyacetyl)azetidin-3-yl)buta-1,3-diyn-1-yl)-3-oxo-1H-pyrrolo[1,2-c]imidazol-2(3H)-yl)-2-methyl-2-(methylsulfonyl)butanamide] | 
4 (≈ 8.9 µM) | 4 (≈ 8.9 µM) | 2 (≈ 4.45 µM) | C[C@@](CCN1Cc2cc(C#CC#CCC3(O)COC3)cn2C1=O)(C(=O)NO)S(C)(=O)=O [Example 63, (R)-N-hydroxy-4-(6-(5-(3-hydroxyoxetan-3-yl)penta-1,3-diyn-1-yl)-3-oxo-1H-pyrrolo[1,2-c]imidazol-2(3H)-yl)-2-methyl-2-(methylsulfonyl)butanamide] | 
8 (≈ 17.3 µM) | 4 (≈ 8.63 µM) | 4 (≈ 8.63 µM) | C[C@@](CCN1Cc2cc(C#CC#CC3(O)CCOCC3)cn2C1=O)(C(=O)NO)S(C)(=O)=O [Example 64, (R)-N-hydroxy-4-(6-((4-hydroxytetrahydro-2H-pyran-4-yl)buta-1,3-diyn-1-yl)-3-oxo-1H-pyrrolo[1,2-c]imidazol-2(3H)-yl)-2-methyl-2-(methylsulfonyl)butanamide] | 
8 (≈ 17.3 µM) | 1 (≈ 2.16 µM) | 2 (≈ 4.32 µM) | C[C@@](CCN1Cc2cc(C#CC#C[C@@H]3CC[C@@H](N)CO3)cn2C1=O)(C(=O)NO)S(C)(=O)=O [Example 65, (R)-4-(6-(((2S,5R)-5-aminotetrahydro-2H-pyran-2-yl)buta-1,3-diyn-1-yl)-3-oxo-1H-pyrrolo[1,2-c]imidazol-2(3H)-yl)-N-hydroxy-2-methyl-2-(methylsulfonyl)butanamide] | 
0.125 (≈ 0.262 µM) | 1 (≈ 2.1 µM) | 0.125 (≈ 0.262 µM) | C[C@@](CCN1Cc2cc(C#Cc3ccc(C4(N)CC4)s3)cn2C1=O)(C(=O)NO)S(C)(=O)=O [Example 68, (R)-4-(6-((5-(1-aminocyclopropyl)thiophen-2-yl)ethynyl)-3-oxo-1H-pyrrolo[1,2-c]imidazol-2(3H)-yl)-N-hydroxy-2-methyl-2-(methylsulfonyl)butanamide] | 
2 (≈ 4.11 µM) | 2 (≈ 4.11 µM) | 0.5 (≈ 1.03 µM) | C[C@@](CCN1Cc2cc(C#Cc3ccc(C4(N)COC4)cc3)cn2C1=O)(C(=O)NO)S(C)(=O)=O [Example 69, (R)-4-(6-((4-(3-aminooxetan-3-yl)phenyl)ethynyl)-3-oxo-1H-pyrrolo[1,2-c]imidazol-2(3H)-yl)-N-hydroxy-2-methyl-2-(methylsulfonyl)butanamide] | 
2 (≈ 3.99 µM) | 2 (≈ 3.99 µM) | 1 (≈ 1.99 µM) | C[C@@](CCN1Cc2cc(C#Cc3ccc(C4(CO)COC4)cc3)cn2C1=O)(C(=O)NO)S(C)(=O)=O [Example 70, (R)-N-hydroxy-4-(6-((4-(3-(hydroxymethyl)oxetan-3-yl)phenyl)ethynyl)-3-oxo-1H-pyrrolo[1,2-c]imidazol-2(3H)-yl)-2-methyl-2-(methylsulfonyl)butanamide] | 
1 (≈ 2.05 µM) | 1 (≈ 2.05 µM) | 0.25 (≈ 0.512 µM) | C[C@@](CCN1Cc2cc(C#Cc3ccc(NC(=O)CO)cc3)cn2C1=O)(C(=O)NO)S(C)(=O)=O [Example 71, (R)-N-hydroxy-4-(6-((4-(2-hydroxyacetamido)phenyl)ethynyl)-3-oxo-1H-pyrrolo[1,2-c]imidazol-2(3H)-yl)-2-methyl-2-(methylsulfonyl)butanamide] | 
